# Experimental data as given in patent US4963553A, “4-[(substituted) alkylcarbonyl]-4,5-dihydro- and -4,5,6,7-tetrahydro-7-[(substituted)phenyl]pyrazolo[1,5-a]pyrimidines” (American Cyanamid Co., priority 1988, dated 1990).
# Counter-ions that a name gives are not always drawn.
# Tests used:
# [1] = test system: Brain-Specific Receptors of Rats (3H-benzodiazepine binding); experiment: Inhibition of the binding of 3H-benzodiazepine to brain-specific receptors of rats; set-up: species or system rat (Wistar strain, whole cortex); conditions: rat cortex P2 fraction, 3H-diazepam 1.5 nM or 3H-flunitrazepam 1.0 nM
# Description: Another test utilized for the determination of anxiolytic activity is the measurement of the ability of a test compound to inhibit the binding of tritiated benzodiazepines to brain-specific receptors of mammals. A modification of the method described by R. F. Squires, et al., Nature, 266 (21), 732 (Apr., 1977) and H. Mohler, et al., Science, 198, 849 (1977) was employed. […] The test compounds were solubilized in dimethylformamide, acetic acid, ethanol or hydrochloric acid. […] (1) resuspended in twice the original volume in hypotonic 50 mM Tris.HCl (pH 7.4), or (2) resuspended in one-half the original volume in hypotonic 10 mM Tris.HCl (pH 7.4) and frozen (-20° C.) until time. of use. Frozen P2 preparations were thawed and resuspended in four times the original homogenizing volume at time of assay. […] Incubation for 30 minutes proceeded in ice and was terminated by filtration, under vacuum, through glass fiber filters. The filters were washed twice with 5 ml of ice-cold 50 mM Tris.HCl (pH 7.4) and placed in scintillation vials. After drying at 50°-60° C. for 30 minutes, 10 ml of diluent was added and the radioactivity determined in a scintillation counter. Inhibition of binding was calculated by the difference between total binding and binding in the presence of test compound, divided by the total binding, X 100.
# [2] = test system: mice (hypoxic environment); experiment: Hypoxic survival test; assay type: in vivo, mouse (Royal Hart); conditions: Mus musculus, ip, 5 min, 100 mg/kg, intraperitoneal, 10% oxygen, 5 minutes; read-out: % Survivors
# Description: The hypoxic survival test is a useful in vivo test for measuring the effectiveness of central nervous system-acting drugs in enhancing survival in an hypoxic environment relative to the known parasympathomimetic agent physostigmine.
# Drugs are tested by intraperitoneal injection of groups of mice 30 minutes prior to placing them in an hypoxic environment and measuring survival. The rationale of this test is that drugs which enhance survival under hypoxic conditions without concomitant depression or sedative side effects, do so by enhancing brain metabolism, i.e., by improving energy supply relative to demand and so preserving normal brain function under conditions of reduced energy metabolism. Considering the dependence of the brain on a constant supply of energy, drugs which have this property may have many far-reaching therapeutic indications, including aiding recovery from stroke and closed head injury and reducing the deleterious effects of age-related central nervous system deficits.
# In the hypoxic survival test, groups of 20 Royal Hart mice (6 weeks of age) were injected intraperitoneally with a test compound in saline at various doses ranging from 1 to 200 mg/kg, 30 minutes prior to placing them in an hypoxic mixture (10% oxygen, 90% […]) and measuring survival after 5 minutes.
# A control group of 20 mice was injected intraperitoneally with saline (0.01 ml/g of body weight) and processed as described above.
# Another group of 20 mice was injected intraperitoneally with 0.125 mg/kg of physostigmine in saline and processed as described above.
# [3] = test system: Spontaneously Hypertensive Rats; experiment: Hypotensive activity: mean arterial blood pressure in spontaneously hypertensive rats; assay type: in vivo, rat (Okamoto strain, male); conditions: SHR, gavage, 100 mg/kg or less, two doses 24 h apart, measured at 28 hours, average MABP of rats used 160±1.5 mm
# Description: The novel compounds of the invention are active hypotensive agents at nontoxic doses when administered to mammals. These compounds were tested for hypotensive activity by the method of P. S. Chan and D. W. Poorvin, Clinical and Experimental Hypertension, (6), 817-830 (1979). Male, 16 week old, spontaneously hypertensive rats of the Okamoto strain (Taconic Farms, Germantown, N.Y.) having an average means arterial blood pressure of 160±1.5 mm of mercury are used in the test. A rat is dosed by gavage with a test compound, suspended in 2% pre-boiled starch at a concentration of 50 mg/ml, at a dose of 100 mg/kg of body weight or less, with 0.9% sodium chloride loading at a dose of 25 ml/kg of body weight. A second identical dose of the test compound, without sodium chloride loading is given 24 hours later. At 28 hours after the initial dose the mean arterial blood pressure is measured by the method of Chan and Poorvin vide supra.
% Inhibition (3H-benzodiazepine binding) [1] [%],SMILES,MABP/mmHg (mean arterial blood pressure) [3] [mmHg],also measured
41,CC(C)NC(=O)CN1CCN(CC(=O)N2CC=C(c3cccc(C(F)(F)F)c3)n3ncc(C#N)c32)CC1 [Example 37],129,–
25,"N#Cc1cnn2c1N(C(=O)CN1CCNCC1)CC=C2c1cccc(C(F)(F)F)c1 [Example 98, 4.5-Dihydro-4-(1-piperazinylacetyl)-7-[3-(trifluoromethyl)phenyl]pyrazolo[1,5-a]pyrimidine-3-carbonitrile]",–,–
12,"Cl.N#Cc1cnn2c1N(C(=O)CN1CCN(c3ccc(Cl)c(Cl)c3)CC1)CC=C2c1cccc(C(F)(F)F)c1 [Example 82, 4-[[4-(3,4-Dichlorophenyl)-1-piperazinyl]acetyl]-4,5-dihydro-7-[3-(trifluoromethyl)phenyl]pyrazolo[1,5-a]pyrimidine-3-carbonitrile, hydrochloride]",–,–
15,"COc1ccc(Cl)cc1NC(=O)CN1CCN(CC(=O)N2CC=C(c3cccc(C(F)(F)F)c3)n3ncc(C#N)c32)CC1 [Example 100, N-(5-Chloro-2-methoxyphenyl)-4-[2-[3-cyano-7-[3-(trifluoromethyl)phenyl]pyrazolo[1.5-a]pyrimidin-4(5H)-yl]-2-oxoethyl]-1-piperazineacetamide]",139,–
45,CCOC(=O)N1CCN(CC(=O)N2CC=C(c3cccc(C(F)(F)F)c3)n3ncc(C#N)c32)CC1 [Example 42],–,–
12,"N#Cc1cnn2c1N(C(=O)CN1CCN(C(=O)c3ccco3)CC1)CC=C2c1cccc(C(F)(F)F)c1 [Example 96, 4-[[4-(2-Furanylcarbonyl)-1-piperazinyl]acetyl]-4.5-dihydro-7-[(3-trifluoromethyl)phenyl]pyrazolo[1,5-a]pyrimidine-3-carbonitrile, hydrochloride]",–,–
33,"N#Cc1cnn2c1N(C(=O)CN1CCN(CC(=O)N3CCCC3)CC1)CC=C2c1cccc(C(F)(F)F)c1 [Example 38, 4,5-Dihydro-4-[[4-[2-oxo-2-(1-pyrrolidinyl)ethyl]-1-piperazinyl]acetyl]-7-[3-(trifluoromethyl)phenyl]pyrazolo[1,5-a]pyrimidine-3-carbonitrile]",–,–
14,"N#Cc1cnn2c1N(C(=O)CN1CCN(CCC3CCCCC3)CC1)CC=C2c1cccc(C(F)(F)F)c1 [Example 86, 4-[[4-(2-(Cyclohexylethyl)-1-piperazinyl]acetyl]-4,5-dihydro-7-[3-(trifluoromethyl)phenyl]pyrazolo[1,5-a]pyrimidine-3-carbonitrile, dihydrochloride]",–,–

# More lines, now with the values behind:
SMILES,% Inhibition (3H-benzodiazepine binding) [1] [%],MABP/mmHg (mean arterial blood pressure) [3] [mmHg],also measured
"N#Cc1cnn2c1N(C(=O)CN1CCN(Cc3ccccc3)CC1)CCC2c1cccc(C(F)(F)F)c1 (stereo not shown) [Example 46, 4,5,6,7-Tetrahydro-4-[[4-(phenylmethyl)-1-piperazinyl]acetyl]-7-[3-(trifluoromethyl)phenyl]pyrazolo[1,5-a]pyrimidine-3-carbonitrile]",14,–,responders at 100 mg/kg [2]: 80%
"N#Cc1cnn2c1N(C(=O)CN1CCN(CC(=O)N3CCOCC3)CC1)CC=C2c1cccc(C(F)(F)F)c1 [Example 36, 4,5-Dihydro-4-[[4-[2-(4-morpholinyl)-2-oxoethyl]-1-piperazinyl]acetyl]-7-[3-(trifluoromethyl)phenyl]pyrazolo[1,5-a]pyrimidine-3-carbonitrile]",41,129,–
"CCCCCCN(CCCCCC)CC(=O)N1CC=C(c2cccc(C(F)(F)F)c2)n2ncc(C#N)c21 [4-[(Dihexylamino)acetyl]-4,5-dihydro-7-[3-(trifluoromethyl)phenyl]pyrazolo[1,5-a]pyrimidine-3-carbonitrile]",24,–,–
"CN1CCN(CC(=O)N2CC=C(c3cccc(C(F)(F)F)c3)n3ncc(C#N)c32)CC1 [Example 16, 4,5-Dihydro-4-[(4-methyl-1-piperazinyl)acetyl]-7-[3-(trifluoromethyl)phenyl]pyrazolo[1,5-a]pyrimidine-3-carbonitrile]",41,–,–
"Cl.Cl.N#Cc1cnn2c1N(C(=O)CN1CCN(Cc3ccccc3)CC1)CCC2c1cccc(C(F)(F)F)c1 (stereo not shown) [Example 89, 4,5,6,7-Tetrahydro-4-[[4-(phenylmethyl)-1-piperazinyl]acetyl]-7-[3-(trifluoromethyl)phenyl]pyrazolo[1,5-a]pyrimidine-3-carbonitrile, dihydrochloride]",12,–,–
"N#Cc1cnn2c1N(C(=O)CN1CCN(c3ccc(F)cc3)CC1)CC=C2c1cccc(C(F)(F)F)c1 [Example 31, 4-[[4-(4-Fluorophenyl)-1-piperazinyl]acetyl]-4,5-dihydro-7-[3-(trifluoromethyl)phenyl]pyrazolo[1,5-a]pyrimidine-3-carbonitrile]",–,130,–
"N#Cc1cnn2c1N(C(=O)CN1CCN(c3ncccn3)CC1)CC=C2c1cccc(C(F)(F)F)c1 [Example 28, 4,5-Dihydro-4-[[4-(2-pyrimidinyl)-1-piperazinyl]acetyl]-7-[3-(trifluoromethyl)phenyl]pyrazolo[1,5-a]pyrimidine-3-carbonitrile]",–,127,–
"N#Cc1cnn2c1N(C(=O)CN1CCN(C(c3ccccc3)c3ccc(Cl)cc3)CC1)CC=C2c1cccc(C(F)(F)F)c1 (stereo not shown) [Example 21, 4-[[4-[(4-Chlorophenyl)phenylmethyl]-1-piperazinyl]acetyl]-4,5-dihydro-7-[3-(trifluoromethyl)phenyl]pyrazolo[1,5-a]pyrimidine-3-carbonitrile]",–,134,–
"N#Cc1cnn2c1N(C(=O)CN1CCN(c3cccc(Cl)c3)CC1)CC=C2c1cccc(C(F)(F)F)c1 [Example 26, 4-[[4-(3-Chlorophenyl)-1-piperazinyl]acetyl]-4,5-dihydro-7-[3-(trifluoromethyl)phenyl]pyrazolo[1,5-a]pyrimidine-3-carbonitrile]",–,124,–
"CC(C)N1CCN(CC(=O)N2CC=C(c3cccc(C(F)(F)F)c3)n3ncc(C#N)c32)CC1 [Example 51, 4,5-Dihydro-4-[[4-(1-methylethyl)-1-piperazinyl]acetyl]-7-[3-(trifluoromethyl)phenyl]pyrazolo[1,5-a]pyrimidine-3-carbonitrile]",–,139,–
"N#Cc1cnn2c1N(C(=O)CN1CCN(C3CCC3)CC1)CC=C2c1cccc(C(F)(F)F)c1 [Example 52, 4-[(4-Cyclobutyl-1-piperazinyl)acetyl]-4,5-dihydro-7-[3-(trifluoromethyl)phenyl)pyrazolo[1,5-a]pyrimidine-3-carbonitrile]",–,124,–
"C=CCN1CCN(CC(=O)N2CC=C(c3cccc(C(F)(F)F)c3)n3ncc(C#N)c32)CC1 [Example 47, 4,5-Dihydro-4-[[4-(2-propenyl)-1-piperazinyl]acetyl]-7-[3-(trifluoromethyl)phenyl]pyrazolo[1,5-a]pyrimidine-3-carbonitrile]",–,139,–
"N#Cc1cnn2c1N(C(=O)CN1CCN(Cc3ccccc3)CC1)CC=C2c1cccc(C(F)(F)F)c1 [Example 78, 4,5-Dihydro-4-[[4-(phenylmethyl)-1-piperazinyl]acetyl]-7-[3-(trifluoromethyl)phenyl]pyroazolo[1,5-a]pyrimidine-3-carbonitrile, dihydrochloride]",–,–,"MABP/mmHg (mean arterial blood pressure) ([3]; dihydrochloride, 100 mg/kg): 137 mmHg"
